Measured values: patent publication US20080181848A1 (priority 2004, published 2008)
Counter-ions that a name gives are not always drawn.

What was measured:
D1 receptor = D1 receptor (Homo sapiens, UniProt P21728); details: D1^High state; read-out: dissociation constant for the high-affinity state of the D1 receptor; cited from earlier work
D2 receptors in striatum = molecular target: T1, D2 receptors in striatum (Rattus norvegicus, UniProt P61169); assay: Binding of intravenously injected radioligand in rat striatum, alone and co-injected with NPA (Examples 2 and 3); format: in vivo, Sprague-Dawley rats
T1 construct: from tissue; host or cells: striatum of Sprague-Dawley rats (in vivo labelling)
Text: In describing and validating the method of the present invention using rats instead of humans, there are certain considerations that should be noted. For example, each rat is not imaged, but is guillotined, and the striatum removed in order to measure the radioactivity in DPM/mg tissue, where DPM represents disintegrations per minute.
Sprague-Dawley rats (275-300 g) were restrained in transparent polystyrene cages. The tail vein was warmed in warm water.

[1] = 25 μg/Kg NPA co-injected i.v., rats, n=6
[2] = rat striatum, radioligand co-injected i.v. with NPA 25 μg/kg

T1 sequence (P61169 whole entry): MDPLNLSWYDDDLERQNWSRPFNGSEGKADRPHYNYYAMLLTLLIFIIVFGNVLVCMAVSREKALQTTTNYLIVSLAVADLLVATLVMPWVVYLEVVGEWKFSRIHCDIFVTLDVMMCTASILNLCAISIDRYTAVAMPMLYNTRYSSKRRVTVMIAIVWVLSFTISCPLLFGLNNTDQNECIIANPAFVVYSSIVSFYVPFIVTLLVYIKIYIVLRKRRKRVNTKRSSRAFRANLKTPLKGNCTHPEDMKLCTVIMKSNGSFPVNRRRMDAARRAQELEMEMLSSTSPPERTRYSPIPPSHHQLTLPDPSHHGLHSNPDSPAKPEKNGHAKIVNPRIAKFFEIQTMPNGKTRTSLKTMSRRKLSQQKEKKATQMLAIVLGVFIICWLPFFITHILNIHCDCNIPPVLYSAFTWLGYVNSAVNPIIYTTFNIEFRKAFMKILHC
Sequence of D1 receptor (P21728 whole entry): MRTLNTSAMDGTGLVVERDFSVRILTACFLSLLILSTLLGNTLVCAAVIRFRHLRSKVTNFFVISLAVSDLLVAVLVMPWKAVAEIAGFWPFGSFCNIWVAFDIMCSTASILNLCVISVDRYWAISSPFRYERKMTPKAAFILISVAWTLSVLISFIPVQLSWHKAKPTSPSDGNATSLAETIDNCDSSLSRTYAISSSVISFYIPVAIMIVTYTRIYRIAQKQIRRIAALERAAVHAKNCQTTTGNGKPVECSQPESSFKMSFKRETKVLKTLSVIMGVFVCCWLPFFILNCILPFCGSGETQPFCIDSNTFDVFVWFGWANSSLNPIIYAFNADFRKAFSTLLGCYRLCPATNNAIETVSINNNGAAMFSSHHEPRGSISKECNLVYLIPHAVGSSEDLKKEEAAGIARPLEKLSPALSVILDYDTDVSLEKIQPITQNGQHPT

CCCN1CCOC2c3cc(O)ccc3CCC21 (single isomer, unassigned; (+)) [(+)PHNO, (+)-4-propyl-9-hydroxy-2,3,4a,5,6,10b-hexahydro-4H-naphth[1,2b][1,4]oxazine HCl]
Kd (D1 receptor): 80 nM

CCCN1CCc2cccc3c2[C@H]1Cc1ccc(O)c(O)c1-3 [NPA, N-propyl-norapomorphine]
binding of radioactive raclopride, level of the control value (D2 receptors in striatum; 25 μg/Kg NPA co-injected i.v., rats, mean ±s.e., n=6, P=0.0004 vs (+)PHNO): 61%±2.9 % of the control value
binding of radioactive (+)PHNO, level of the control value (D2 receptors in striatum; [1]): 46 % of the control value
inhibition of the binding of radioactive raclopride (D2 receptors in striatum; [1]): 39%
inhibition of the binding of radioactive (+)PHNO (D2 receptors in striatum; 25 μg/Kg NPA co-injected i.v., rats, n=6, representative experiment): 54%
inhibition of the D2^High receptors (D2 receptors in striatum; normal rats, NPA 25 μg/kg i.v. co-injected with radioactive (+)PHNO): 53%

CCN1CCC[C@H]1CNC(=O)c1c(O)c(Cl)cc(Cl)c1OC (racemic) [[^3H]Raclopride]
Control (D2 receptors in striatum; rat striatum, 30 min after i.v. 0.1 nmol radioligand, no NPA): 2.8 pmol/g
Control DPM/mg (total binding in striatum) (D2 receptors in striatum; rat striatum, 30 min after i.v. 0.1 nmol radioligand, no NPA, n=6): 37.9 DPM/mg
pmol/g Displaced by NPA (D2 receptors in striatum; rat striatum, NPA 25 μg/kg co-injected): 1.09 pmol/g
With NPA (D2 receptors in striatum; [2]): 1.71 pmol/g
With NPA DPM/mg (D2 receptors in striatum; [2]): 23.13 DPM/mg
